Reference: PubChem BioAssay AID1963974 (Molecular Pharmacology Branch, DTP, NCI, 2024)
Where “and” joins values, the source holds several entries; their conditions need not be identical. Equal entries are not always repeated.

Test system: 648629-189-R-J1-PDC spheroids with HUVEC/MSC, viability
Experiment: Anticancer human tumor 648629-189-R-J1-PDC patient-derived bladder carcinoma cell line growth inhibition [PI3K]
Settings: for viability, T/C: stronger effect = lower value
In short: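 Spheroid viability read-out. Co-cultures contained the tumor line plus HUVEC and human MSCs. Each agent was paired with a PI3K inhibitor (inavolisib, alpelisib, duvelisib, copanlisib) across half-log dilutions starting at clinical Cmax, or at 10 microM when Cmax was unknown.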

[1] = curve of first compound, second compound 0.0316 µM
[2] = curve of first compound, second compound 0.1 µM
[3] = curve of first compound, second compound 0.316 µM
[4] = curve of first compound, second compound 1 µM
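Further: spheroids exposed to agents for seven days before reading.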
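Wherever viability, T/C is given: percent of vehicle control luminescence where 100% = DMSO treated spheroids.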

Question: Which results are given for CC(C)n1nc(-c2ccc3oc(N)nc3c2)c2c(N)ncnc21 + CC(Nc1ncnc2nc[nH]c12)c1cc2cccc(Cl)c2c(=O)n1-c1ccccc1?
Answer: IC50 [1]: 0.073 µM; IC50 [2]: 0.0638 µM; IC50 [3]: 0.0626 µM; IC50 [4]: 0.0615 µM; IC50 (curve of first compound, second compound 3.16 µM): 0.0558 µM; IC50 (curve of first compound, second compound 10 µM): 0.0321 µM; viability, T/C (second compound 0.0316 µM, first compound 0.000316 µM): 93.2%; viability, T/C (second compound 0.0316 µM, first compound 0.001 µM): 96.1%; viability, T/C (second compound 0.0316 µM, first compound 0.00316 µM): 87.9%; viability, T/C (second compound 0.0316 µM, first compound 0.01 µM): 85.4%; viability, T/C (second compound 0.0316 µM, first compound 0.0316 µM): 85.8%; viability, T/C (second compound 0.0316 µM, first compound 0.1 µM): 36.5%; viability, T/C (second compound 0.1 µM, first compound 0.000316 µM): 101%; viability, T/C (second compound 0.1 µM, first compound 0.001 µM): 86.5%; viability, T/C (second compound 0.1 µM, first compound 0.00316 µM): 101%; viability, T/C (second compound 0.1 µM, first compound 0.01 µM): 97.7%; viability, T/C (second compound 0.1 µM, first compound 0.0316 µM): 69.5%; viability, T/C (second compound 0.1 µM, first compound 0.1 µM): 37.5%; viability, T/C (second compound 0.316 µM, first compound 0.000316 µM): 99.5%; viability, T/C (second compound 0.316 µM, first compound 0.001 µM): 107%; viability, T/C (second compound 0.316 µM, first compound 0.00316 µM): 104%; viability, T/C (second compound 0.316 µM, first compound 0.01 µM): 85.8%; viability, T/C (second compound 0.316 µM, first compound 0.0316 µM): 73.8%; viability, T/C (second compound 0.316 µM, first compound 0.1 µM): 34.7%; viability, T/C (second compound 1 µM, first compound 0.000316 µM): 104%; viability, T/C (second compound 1 µM, first compound 0.001 µM): 89.6%; viability, T/C (second compound 1 µM, first compound 0.00316 µM): 101%; viability, T/C (second compound 1 µM, first compound 0.01 µM): 85.6%; viability, T/C (second compound 1 µM, first compound 0.0316 µM): 68.8%; viability, T/C (second compound 1 µM, first compound 0.1 µM): 36.5%; viability, T/C (second compound 3.16 µM, first compound 0.000316 µM): 85.8%; viability, T/C (second compound 3.16 µM, first compound 0.001 µM): 103%; viability, T/C (second compound 3.16 µM, first compound 0.00316 µM): 91.4%; viability, T/C (second compound 3.16 µM, first compound 0.01 µM): 84.6%; viability, T/C (second compound 3.16 µM, first compound 0.0316 µM): 66.1%; viability, T/C (second compound 3.16 µM, first compound 0.1 µM): 33.8%; viability, T/C (second compound 10 µM, first compound 0.000316 µM): 83.1%; viability, T/C (second compound 10 µM, first compound 0.001 µM): 87.1%; viability, T/C (second compound 10 µM, first compound 0.00316 µM): 81.4%; viability, T/C (second compound 10 µM, first compound 0.01 µM): 72.3%; viability, T/C (second compound 10 µM, first compound 0.0316 µM): 50.4%; viability, T/C (second compound 10 µM, first compound 0.1 µM): 30.3%

Question: CNC(=O)c1ccc(N2C(=S)N(c3ccc(C#N)c(C(F)(F)F)c3)C(=O)C2(C)C)cc1F was tested. Which viability, T/C (compound 0.0316 µM) did it give?
Answer: 107% (2×) and 95.9% and 101%

Question: What about the viability, T/C (compound 0.1 µM) of the same molecule?
Answer: 98.2% [middle of 4 runs]

Question: And the viability, T/C (compound 0.316 µM)?
Answer: 107% [middle of 4 runs]

Question: And the viability, T/C (compound 1 µM)?
Answer: 105% [middle of 4 runs]

Question: What about the viability, T/C (compound 3.16 µM) of the same molecule?
Answer: 92.6% and 104% (2×) and 108%

Question: And the viability, T/C (compound 10 µM)?
Answer: 91% [middle of 4 runs]

Question: And the IC50 (curve of compound)?
Answer: > 10 µM

Question: Which results are given for Cn1cnc2c(F)c(Nc3ccc(Br)cc3Cl)c(C(=O)NOCCO)cc21 + CC(Nc1ccc2c(c1)OCCn1cc(N3C(=O)OCC3C(F)F)nc1-2)C(N)=O?
Answer: IC50 (curve of first compound, second compound 0.00316 µM): > 3 µM; IC50 (curve of first compound, second compound 0.01 µM): > 3 µM; IC50 [1]: > 3 µM; IC50 [2]: > 3 µM; IC50 [3]: > 3 µM; IC50 [4]: > 3 µM; viability, T/C (second compound 0.00316 µM, first compound 0.00949 µM): 95.5%; viability, T/C (second compound 0.00316 µM, first compound 0.03 µM): 103%; viability, T/C (second compound 0.00316 µM, first compound 0.0949 µM): 99.2%; viability, T/C (second compound 0.00316 µM, first compound 0.3 µM): 91.8%; viability, T/C (second compound 0.00316 µM, first compound 0.949 µM): 94.4%; viability, T/C (second compound 0.00316 µM, first compound 3 µM): 81.6%; viability, T/C (second compound 0.01 µM, first compound 0.00949 µM): 93.4%; viability, T/C (second compound 0.01 µM, first compound 0.03 µM): 91.2%; viability, T/C (second compound 0.01 µM, first compound 0.0949 µM): 92.9%; viability, T/C (second compound 0.01 µM, first compound 0.3 µM): 91.8%; viability, T/C (second compound 0.01 µM, first compound 0.949 µM): 103%; viability, T/C (second compound 0.01 µM, first compound 3 µM): 81.1%; viability, T/C (second compound 0.0316 µM, first compound 0.00949 µM): 98.5%; viability, T/C (second compound 0.0316 µM, first compound 0.03 µM): 96.2%; viability, T/C (second compound 0.0316 µM, first compound 0.0949 µM): 87.5%; viability, T/C (second compound 0.0316 µM, first compound 0.3 µM): 89.3%; viability, T/C (second compound 0.0316 µM, first compound 0.949 µM): 95.2%; viability, T/C (second compound 0.0316 µM, first compound 3 µM): 79.2%; viability, T/C (second compound 0.1 µM, first compound 0.00949 µM): 90.7%; viability, T/C (second compound 0.1 µM, first compound 0.03 µM): 91.7%; viability, T/C (second compound 0.1 µM, first compound 0.0949 µM): 82.6%; viability, T/C (second compound 0.1 µM, first compound 0.3 µM): 92.2%; viability, T/C (second compound 0.1 µM, first compound 0.949 µM): 93.9%; viability, T/C (second compound 0.1 µM, first compound 3 µM): 75.8%; viability, T/C (second compound 0.316 µM, first compound 0.00949 µM): 81.1%; viability, T/C (second compound 0.316 µM, first compound 0.03 µM): 79.2%; viability, T/C (second compound 0.316 µM, first compound 0.0949 µM): 70.3%; viability, T/C (second compound 0.316 µM, first compound 0.3 µM): 78.5%; viability, T/C (second compound 0.316 µM, first compound 0.949 µM): 74.3%; viability, T/C (second compound 0.316 µM, first compound 3 µM): 69.1%; viability, T/C (second compound 1 µM, first compound 0.00949 µM): 66.1%; viability, T/C (second compound 1 µM, first compound 0.03 µM): 70.4%; viability, T/C (second compound 1 µM, first compound 0.0949 µM): 66.4%; viability, T/C (second compound 1 µM, first compound 0.3 µM): 96.4%; viability, T/C (second compound 1 µM, first compound 0.949 µM): 66%; viability, T/C (second compound 1 µM, first compound 3 µM): 51%

Question: With COc1c(OCCCN2CCOCC2)ccc2c3n(c(=NC(=O)c4cnc(N)nc4)nc12)CCN3 as the molecule, how does the viability, T/C (compound 0.00316 µM) read?
Answer: 108% [middle of 8 runs]

Question: And the viability, T/C (compound 0.01 µM)?
Answer: 103% [middle of 8 runs]

Question: What about the viability, T/C (compound 0.0316 µM) of the same molecule?
Answer: 97.5% [middle of 8 runs]

Question: And the viability, T/C (compound 0.1 µM)?
Answer: 64.5% [middle of 8 runs]

Question: What about the viability, T/C (compound 0.316 µM) of the same molecule?
Answer: 18.6% [middle of 8 runs]

Question: And the viability, T/C (compound 1 µM)?
Answer: 3.42% [middle of 8 runs]

Question: And the IC50 (compound alone, run of 04/25/2023)?
Answer: 144 nM [middle of 7 runs]
